Data reported in patent US11566007B2, “Ras inhibitors” (Revolution Medicines, Inc., priority 2019, dated 2023).

Legend:
KRAS G13D = KRAS G13D (Homo sapiens (Human), UniProt P01116+P62937, G13D); test: Ras-Raf (BRAF RBD) disruption / FRET / MOA assay, KRAS G13D; type: biochemical; settings: read-out: IC50* KRAS G13D FRET data
In short: (§1)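 A 10-point, 3-fold dilution series topping at 30 μM final was incubated 3 h at 25° C with the Ras/cyclophilin A/BRAF RBD mixture.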

KRAS WT = KRAS WT (Homo sapiens (Human), UniProt P01116+P62937); test: Ras-Raf (BRAF RBD) disruption / FRET / MOA assay, KRAS WT; type: biochemical; settings: read-out: IC50* KRAS WT FRET data
In short: as §1

NCI-H358 (K-Ras G12C) = test: CellTiter-Glo cell viability assay, NCI-H358; type: cell-based, human; settings: Homo sapiens, NCI-H358, 120 h, NCI-H358, 5-day treatment; class symbols; read-out: Additional H358 Cell Viability assay data (K-Ras G12C, IC50)
In short: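 Compounds dispensed directly onto seeded K-Ras mutant cells; plates read on day 5 after ~30 min equilibration to room temperature, by CellTiter-Glo luminescence. Signal normalized as (sample/mean DMSO)×100, then fitted to a four-parameter logistic curve.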

KRAS G12S = KRAS G12S (Homo sapiens (Human), UniProt P01116+P62937, G12S); test: Ras-Raf (BRAF RBD) disruption / FRET / MOA assay, KRAS G12S; type: biochemical; settings: Ras-Raf disruption/FRET/MOA assay; class symbols; read-out: KRAS G12S FRET data IC50
In short: as §1

KRAS G12D = KRAS G12D (Homo sapiens (Human), UniProt P01116+P62937, G12D); test: Ras-Raf (BRAF RBD) disruption / FRET / MOA assay, KRAS G12D; type: biochemical; settings: Ras-Raf disruption/FRET/MOA assay; class symbols; read-out: KRAS G12D FRET data IC50
In short: as §1

K-Ras G12C = K-Ras G12C (Homo sapiens (Human), UniProt P01116+P62937, G12C); test: Ras-Raf (BRAF RBD) disruption / FRET / MOA assay, KRAS G12C; type: biochemical; settings: KRAS G12C; Ras-Raf disruption/FRET/MOA assay; read-out: IC50* KRAS G12C FRET data
In short: as §1

K-Ras G13C = K-Ras G13C (Homo sapiens (Human), UniProt P01116+P62937, G13C); test: Ras-Raf (BRAF RBD) disruption / FRET / MOA assay, KRAS G13C; type: biochemical; settings: KRAS G13C; Ras-Raf disruption/FRET/MOA assay; read-out: IC50* KRAS G13C FRET data
In short: as §1

KRAS G12V = KRAS G12V (Homo sapiens (Human), UniProt P01116+P62937, G12V); test: Ras-Raf (BRAF RBD) disruption / FRET / MOA assay, KRAS G12V; type: biochemical; settings: read-out: IC50* KRAS G12V FRET data
In short: as §1

[1] = test system: NCI-H358 cells (K-Ras G12C); test: Potency assay: pERK in NCI-H358 cells; type: cell-based, human; settings: Homo sapiens, NCI-H358; H358 KRAS G12C; read-out: pERK EC50
In short: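 pERK decrease read by AlphaLISA SureFire p-ERK1/2 or In-Cell Western after 4 h compound exposure at 37 °C, 5% CO2.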

NRAS G12C = NRAS G12C (Homo sapiens (Human), UniProt P01111+P62937, G12C); test: Ras-Raf (BRAF RBD) disruption / FRET / MOA assay, NRAS G12C; type: biochemical; settings: read-out: IC50* NRAS G12C FRET data
In short: as §1

Chain of K-Ras G12C (P01116-2 other isoform, or with tags, fused parts or gaps G12C): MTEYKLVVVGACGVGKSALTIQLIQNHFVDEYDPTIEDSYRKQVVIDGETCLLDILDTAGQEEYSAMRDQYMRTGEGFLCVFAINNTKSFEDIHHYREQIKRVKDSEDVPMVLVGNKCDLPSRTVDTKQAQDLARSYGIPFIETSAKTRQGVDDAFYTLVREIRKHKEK
Chain of K-Ras G12C (P62937 whole entry): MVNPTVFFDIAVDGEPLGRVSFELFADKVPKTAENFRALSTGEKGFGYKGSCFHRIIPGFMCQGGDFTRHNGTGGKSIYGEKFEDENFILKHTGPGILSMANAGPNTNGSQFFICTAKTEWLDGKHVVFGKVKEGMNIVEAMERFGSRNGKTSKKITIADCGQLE
Chain of KRAS G12D (P01116-2 other isoform, or with tags, fused parts or gaps G12D): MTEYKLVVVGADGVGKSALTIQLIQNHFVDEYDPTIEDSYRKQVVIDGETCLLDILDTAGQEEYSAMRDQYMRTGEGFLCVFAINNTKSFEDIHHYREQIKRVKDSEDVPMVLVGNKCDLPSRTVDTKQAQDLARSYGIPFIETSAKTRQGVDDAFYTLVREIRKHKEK
Chain of KRAS G12D (P62937 whole entry): as the sequence (P62937 whole entry) above
Chain of NRAS G12C (P01111 whole entry G12C): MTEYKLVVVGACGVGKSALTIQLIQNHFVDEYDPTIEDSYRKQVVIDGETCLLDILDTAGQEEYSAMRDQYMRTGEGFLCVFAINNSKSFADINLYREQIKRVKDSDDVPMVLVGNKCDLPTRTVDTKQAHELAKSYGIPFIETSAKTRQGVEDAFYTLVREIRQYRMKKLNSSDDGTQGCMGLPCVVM
Chain of NRAS G12C (P62937 whole entry): as the sequence (P62937 whole entry) above
Chain of KRAS G13D (P01116-2 other isoform, or with tags, fused parts or gaps G13D): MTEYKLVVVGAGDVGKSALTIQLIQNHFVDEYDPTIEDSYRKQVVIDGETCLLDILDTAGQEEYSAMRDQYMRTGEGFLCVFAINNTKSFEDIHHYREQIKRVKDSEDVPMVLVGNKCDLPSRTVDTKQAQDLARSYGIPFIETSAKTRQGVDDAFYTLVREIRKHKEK
Chain of KRAS G13D (P62937 whole entry): as the sequence (P62937 whole entry) above
Chain of KRAS G12V (P01116-2 other isoform, or with tags, fused parts or gaps G12V): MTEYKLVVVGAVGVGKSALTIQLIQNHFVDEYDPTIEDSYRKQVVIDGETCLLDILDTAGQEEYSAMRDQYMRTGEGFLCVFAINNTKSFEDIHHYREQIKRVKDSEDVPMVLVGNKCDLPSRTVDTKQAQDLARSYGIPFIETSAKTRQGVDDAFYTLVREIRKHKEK
Chain of KRAS G12V (P62937 whole entry): as the sequence (P62937 whole entry) above
Chain of KRAS WT (P01116-2 other isoform, or with tags, fused parts or gaps): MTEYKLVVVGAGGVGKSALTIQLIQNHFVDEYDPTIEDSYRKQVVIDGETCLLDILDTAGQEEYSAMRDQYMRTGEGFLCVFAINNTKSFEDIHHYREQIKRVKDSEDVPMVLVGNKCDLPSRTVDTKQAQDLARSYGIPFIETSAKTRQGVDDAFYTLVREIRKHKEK
Chain of KRAS WT (P62937 whole entry): as the sequence (P62937 whole entry) above
Chain of KRAS G12S (P01116-2 other isoform, or with tags, fused parts or gaps G12S): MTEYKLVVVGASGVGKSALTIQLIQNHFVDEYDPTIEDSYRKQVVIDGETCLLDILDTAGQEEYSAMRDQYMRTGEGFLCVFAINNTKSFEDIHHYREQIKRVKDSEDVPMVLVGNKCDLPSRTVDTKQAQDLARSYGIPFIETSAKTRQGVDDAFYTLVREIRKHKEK
Chain of KRAS G12S (P62937 whole entry): as the sequence (P62937 whole entry) above
Chain of K-Ras G13C (P01116-2 other isoform, or with tags, fused parts or gaps G13C): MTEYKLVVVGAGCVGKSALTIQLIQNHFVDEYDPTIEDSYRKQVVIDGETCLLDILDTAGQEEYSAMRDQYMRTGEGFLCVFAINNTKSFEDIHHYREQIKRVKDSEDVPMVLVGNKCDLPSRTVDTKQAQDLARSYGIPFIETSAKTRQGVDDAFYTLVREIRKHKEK
Chain of K-Ras G13C (P62937 whole entry): as the sequence (P62937 whole entry) above

Compound | IC50 (KRAS G13D) | IC50 (KRAS WT) | IC50 (NCI-H358 (K-Ras G12C)) | IC50 (KRAS G12S) | IC50 (KRAS G12D) | IC50 (K-Ras G12C) | IC50 (K-Ras G13C) | IC50 (KRAS G12V) | EC50 [1] | IC50 (NRAS G12C)
C=CC(=O)N1C[C@@H](F)[C@](F)(C(=O)N(C)[C@H](C(=O)N[C@H]2Cc3cccc(c3)-c3ccc4c(c3)c(c(-c3cccnc3[C@H](C)OC)n4CC)CC(C)(C)COC(=O)[C@@H]3CCCN(N3)C2=O)C(C)C)C1 (atropisomer, axis not shown) [Example A396] | 1000 to 10000 nM | 1000 to 10000 nM | < 10 nM | 1000 to 10000 nM | 1000 to 10000 nM | 10 to 100 nM | 10 to 100 nM | 1000 to 10000 nM | < 5000 nM | 10 to 100 nM
C=CC(=O)N1C[C@H](F)[C@](F)(C(=O)N(C)[C@H](C(=O)N[C@H]2Cc3cccc(c3)-c3ccc4c(c3)c(c(-c3cccnc3[C@H](C)OC)n4CC)CC(C)(C)COC(=O)[C@@H]3CCCN(N3)C2=O)C(C)C)C1 (atropisomer, axis not shown) [Example A397] | 100 to 1000 nM | 100 to 1000 nM | < 10 nM | 100 to 1000 nM | 1000 to 10000 nM | 10 to 100 nM | 10 to 100 nM | 100 to 1000 nM | < 5000 nM | 10 to 100 nM
C=CC(=O)N1CC[C@H](C(=O)N(CC)[C@H](C(=O)N[C@H]2Cc3cccc(c3)-c3ccc4c(c3)c(c(-c3cccnc3[C@H](C)OC)n4CC)CC(C)(C)COC(=O)[C@@H]3CCCN(N3)C2=O)C(C)C)C1 (atropisomer, axis not shown) [Example A399] | 1000 to 10000 nM | 1000 to 10000 nM | 10 to 100 nM | 1000 to 10000 nM | > 10000 nM | 100 to 1000 nM | 1000 to 10000 nM | 1000 to 10000 nM | < 5000 nM | 100 to 1000 nM
C=CC(=O)N1C[C@H](C(=O)N(C)[C@H](C(=O)N[C@H]2Cc3cccc(c3)-c3ccc4c(c3)c(c(-c3cccnc3[C@H](C)OC)n4CC)CC(C)(C)COC(=O)[C@@H]3CCCN(N3)C2=O)C(C)C)[C@H](C(F)(F)F)C1 (atropisomer, axis not shown) [Example A400] | > 10000 nM | > 10000 nM | 10 to 100 nM | > 10000 nM | > 10000 nM | 10 to 100 nM | 1000 to 10000 nM | > 10000 nM | < 5000 nM | 10 to 100 nM
CC#CC(=O)N1C[C@H](C)[C@H](C(=O)N(C)[C@H](C(=O)N[C@H]2Cc3cccc(c3)-c3ccc4c(c3)c(c(-c3cccnc3[C@H](C)OC)n4CC)CC(C)(C)COC(=O)[C@@H]3CCCN(N3)C2=O)C2CCCC2)C1 (atropisomer, axis not shown) [Example A402] | > 10000 nM | 1000 to 10000 nM | 10 to 100 nM | 1000 to 10000 nM | > 10000 nM | 100 to 1000 nM | 1000 to 10000 nM | 1000 to 10000 nM | < 5000 nM | 100 to 1000 nM
C=CC(=O)N1C[C@@H](C)N(C(=O)N(C)[C@H](C(=O)N[C@H]2Cc3nc(cs3)-c3ccc4c(c3)c(c(-c3cccnc3[C@H](C)OC)n4CC)CC(C)(C)COC(=O)[C@@H]3CCCN(N3)C2=O)C(C)C)C[C@H]1C (atropisomer, axis not shown) [Example A406] | 100 to 1000 nM | 100 to 1000 nM | 10 to 100 nM | 100 to 1000 nM | 1000 to 10000 nM | 100 to 1000 nM | 100 to 1000 nM | 100 to 1000 nM | < 5000 nM | 100 to 1000 nM
C=CC(=O)N1C[C@@H]2C[C@H]1CN2C(=O)N(C)[C@H](C(=O)N[C@H]1Cc2nc(cs2)-c2ccc3c(c2)c(c(-c2cccnc2[C@H](C)OC)n3CC)CC(C)(C)COC(=O)[C@@H]2CCCN(N2)C1=O)C(C)C (atropisomer, axis not shown) [Example A409] | 1000 to 10000 nM | 100 to 1000 nM | 10 to 100 nM | 100 to 1000 nM | 100 to 1000 nM | 100 to 1000 nM | 100 to 1000 nM | 100 to 1000 nM | < 5000 nM | 100 to 1000 nM
